Results as given in paper PMC3226828 (Journal of medicinal chemistry, 2011).

Legend:
[1] = tested on: 68 GPCRs, ion channels and transporters; assay: Ricerca Lead Profiling Screen; format: binding; conditions: 10 µM; all 68 assays
[2] = tested on: haloperidol-induced catalepsy; assay: reversal of haloperidol-induced catalepsy; format: in vivo; conditions: rat, p.o., haloperidol 0.75 mg/kg, 30 min, vs vehicle control
mGlu1,2,3 = conditions: 10 point concentration-response prior to EC20 agonist
[3] = rat in vivo pharmacokinetics, IV and PO; conditions: for CL / clearance: IV 1 mg/kg, hydrochloride, 10% EtOH, 80% PEG-400, 10% saline; for clearance: CL
[4] = IV cassette pharmacokinetics in beagle dog; conditions: in vivo
[5] = IV cassette pharmacokinetics in rhesus monkey; conditions: in vivo
[6] = disclosed mGlu4 PAMs; cited from earlier work
[7] = previously reported tool compounds; cited from earlier work
[8] = previously reported tool compounds; cited from earlier work; remark: listed apart in the source

O=C(Nc1ccc(N2C(=O)[C@@H]3[C@H](C2=O)[C@@H]2C=C[C@H]3C2)c(Cl)c1)c1ccccn1 [15f]
inhibition of radioligand binding [1]: ≤ 50%
reversal of haloperidol-induced catalepsy [2]: produced a reversal of haloperidol-induced catalepsy
reversal of haloperidol-induced catalepsy ([2]; listed as ML182): orally active
activity at mGlu 1, 2, 3 (mGlu1,2,3): inactive
CL ([3]; 1 mg/kg): 36.9 mL/min/kg
MRT ([3]; in vivo, iv, 1 mg/kg): 8.22 h
Vd ([3]; in vivo, iv, 1 mg/kg): 18 L/kg
half-life ([3]; in vivo, iv, 1 mg/kg): 0.673 h
clearance ([3]; in vivo, iv, 1 mg/kg): 37 mL/min/kg
AUC(0-t) ([3]; in vivo, po, 10 mg/kg): 4350 ng·h/mL

O=C(Nc1ccc(N2C(=O)CC3(CCCCC3)C2=O)c(Cl)c1)c1ccccn1 [15j, N-(3-Chloro-4-(1,3-dioxo-2-azaspiro[4.5]decan-2-yl)phenyl)picolinamide]
CL ([3]; 1 mg/kg): 48.3 mL/min/kg
MRT ([3]; in vivo, iv, 1 mg/kg): 0.953 h
clearance ([3]; in vivo, iv, 1 mg/kg): 48 mL/min/kg

O=C(Nc1ccc(N2C(=O)CC(c3ccccc3)C2=O)c(Cl)c1)c1ccccn1 (centres unmarked) [15k, N-(3-Chloro-4-(2,5-dioxo-3-phenylpyrrolidin-1-yl)phenyl)picolinamide]
clearance [4]: 7 mL/min/kg
clearance [5]: 3 mL/min/kg
MRT ([3]; in vivo, iv, 1 mg/kg): 1.82 h
clearance ([3]; in vivo, iv, 1 mg/kg): 5.4 mL/min/kg

COc1cc(NC(=O)c2ccccn2)ccc1Cl [compound 2]
CNS penetration when dosed systemically [6]: CNS penetrant
rPPB (%fu) [7]: 2.4 %fu
rat CLHEP [8]: 65.5 mL/min/kg
